The source of these data is patent US20060148850A1, “4-{'3-(Sulfonylamino) phenyl!'1-(cyclymethyl) piperidin-4-ylidene! methyl}benazmide derivativess as delta opioid receptor ligands for the treatment of pain, anxiety and functional gastrointestinal disorder” (AstraZeneca AB, priority 2003, published 2006).

For experiment [1], the target named is T1, cloned human δ receptors (Homo sapiens, UniProt P41143).
T1 construct: expressed in transfected cells; host or cells: HEK-293S cells
In words: Human δ receptor binding assay (125I-Deltorphin II displacement).

The target in experiment [2] is T1, cloned human δ receptors. In words: Human δ receptor functional assay (GTP[γ]35S binding), high and low receptor expression. Format: biochemical. As to the method: Human 293S cells expressing cloned human κ, δ and μ receptors and neomycin resistance are grown in suspension at 37° C. and 5% CO2 in shaker flasks containing calcium-free DMEM10% FBS, 5% BCS, 0.1% Pluronic F-68, and 600 μg/ml geneticin.
Cells are pelleted and resuspended in lysis buffer (50 mM Tris, pH 7.0, 2.5 mM EDTA, with PMSF added just prior to use to 0.1 mM from a 0.1 M stock in ethanol), incubated on ice for 15 min, then homogenized with a polytron for 30 sec. The suspension is spun at 1000 g (max) for 10 min at 4° C. The supernatant is saved on ice and the pellets resuspended and spun as before. The supernatants from both spins are combined and spun at 46,000 g(max) for 30 min. The pellets are resuspended in cold Tris buffer (50 mM Tris/Cl, pH 7.0) and spun again. The final pellets are resuspended in membrane buffer ( 50 mM Tris, 0.32 M sucrose, pH 7.0). Aliquots (1 ml) in polypropylene tubes are frozen in dry ice/ethanol and stored at −70° C. until use. The protein concentrations are determined by a modified Lowry assay with sodium dodecyl sulfate.
The agonist activity of the compounds is measured by determining the degree to which the compounds receptor complex activates the binding of GTP to G-proteins to which the receptors are coupled. In the GTP binding assay, GTP[γ]^35S is combined with test compounds and membranes from HEK-293S cells expressing the cloned human opioid receptors or from homogenised rat or mouse brain. Agonists stimulate GTP[γ]^35S binding in these membranes. The EC50 and Emax values of compounds are determined from dose-response curves. Right shifts of the dose response curve by the delta antagonist naltrindole are performed to verify that agonist activity is mediated through delta receptors. For human […] functional assays, EC50 (low) is measured when the human δ receptors used in the assay were expressed at lower levels in comparison with those used in determining EC50 (high). The Emax values were determined in relation to the standard δ agonist SNC80, i.e., higher than 100% is a compound that have better efficacy than SNC80.
Rat brain membranes are thawed at 37° C., passed 3 times through a 25-gauge blunt-end needle and diluted in the GTPYS binding (50 mM Hepes, 20 mM NaOH, 100 mM NaCl, 1 mM EDTA, 5 mM MgCl2, pH 7.4, Add fresh: 1 mM DTT, 0.1% BSA). 120 μM GDP final is added membranes dilutions. The EC50 and Emax of compounds are evaluated from 10-point dose-response curves done in 300 μl with the appropriate amount of membrane protein (20 μg/well) and 100000-130000 dpm of GTPγ^35S per well (0.11-0.14 nM). The basal and maximal stimulated binding are determined in absence and presence of 3 μM SNC-80. The assay performed on HEK 293s cells stably expressing cloned Delta receptors is done in a slightly different buffer (50 mM Hepes, 20 mM NaOH, 200 mM NaCl, 1 mM EDTA, 5 mM MgCl2, pH 7.4, Add fresh: 0.5% BSA, no DTT) and with a 3 μM final conc. of GDP.
A general note: Binding of GTPγS marks nucleotide exchange on a G protein.

The target in another experiment is T2, cloned human μ receptors (Homo sapiens, UniProt P35372).
T2 construct: expressed in transfected cells; host or cells: Human 293S cells
T2 sequence (P35372 whole entry): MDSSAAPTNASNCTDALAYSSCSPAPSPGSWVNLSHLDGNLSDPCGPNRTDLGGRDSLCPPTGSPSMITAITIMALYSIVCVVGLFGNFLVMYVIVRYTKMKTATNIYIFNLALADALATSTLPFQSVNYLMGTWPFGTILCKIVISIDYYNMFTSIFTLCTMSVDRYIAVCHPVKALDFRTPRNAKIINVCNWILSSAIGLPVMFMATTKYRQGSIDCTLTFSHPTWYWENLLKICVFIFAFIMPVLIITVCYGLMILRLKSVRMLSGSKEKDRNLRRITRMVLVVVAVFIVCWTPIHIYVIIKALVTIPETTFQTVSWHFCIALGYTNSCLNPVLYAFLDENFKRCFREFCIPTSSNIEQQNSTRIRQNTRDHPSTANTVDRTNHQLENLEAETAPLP
In words: Human μ receptor binding assay (125I-FK33824 displacement).

Another experiment concerns the target cloned human κ receptors (Homo sapiens, UniProt P41145). In words: Human κ receptor binding assay (125I-DPDYN displacement). As to conditions: Table 1.
Experiment [3] concerns the target T3, δ receptors in rat brain membranes (Rattus norvegicus, UniProt P33533).
T3 construct: membranes from HEK-293S cells expressing the cloned human opioid receptors or from homogenised rat or mouse brain; from tissue; host or cells: rat brain
In words: Rat brain functional assay (GTPγ35S binding). It is filed as biochemical. As to the method: Rat brains are weighed and rinsed in ice-cold PBS (containing 2.5 mM EDTA, pH 7.4). The brains are homogenized with a polytron for 30 sec (rat) in ice-cold lysis buffer (50 mM Tris, pH 7.0,2.5 mM EDTA, with phenylmethylsulfonyl fluoride added just prior use to […] from a 0.5M stock in DMSO:ethanol).
The agonist activity of the compounds is measured by determining the degree to which the compounds receptor complex activates the binding of GTP to G-proteins to which the receptors are coupled. In the GTP binding assay, GTP[γ]^35S is combined with test compounds and membranes from HEK-293S cells expressing the cloned human opioid receptors or from homogenised rat or mouse brain. […] The EC50 and Emax values of compounds are determined from dose-response curves. […] For human a receptor functional assays, EC50 (low) is measured when the human δ receptors used in the assay were expressed at lower levels in comparison with those used in determining EC50 (high). […]
Rat brain membranes are thawed at 37° C., passed 3 times through a 25-gauge blunt-end needle and diluted in the GTPYS binding (50 mM Hepes, 20 mM NaOH, 100 mM NaCl, 1 mM EDTA, 5 mM MgCl2, pH 7.4, Add fresh: 1 mM DTT, 0.1% BSA). […] The EC50 and Emax of compounds are evaluated from 10-point dose-response curves done in 300 μl with the appropriate amount of membrane protein (20 μg/well) and 100000-130000 dpm of GTPγ^35S per well (0.11-0.14 nM). […]

Setting [4] is: Table 2, lower expression, relative to SNC80, range over compounds 1,2,4,5, read-out: Human δ %EMax (low).

Where two headings read alike, the source gives them in different places.

T1 sequence (P41143 whole entry): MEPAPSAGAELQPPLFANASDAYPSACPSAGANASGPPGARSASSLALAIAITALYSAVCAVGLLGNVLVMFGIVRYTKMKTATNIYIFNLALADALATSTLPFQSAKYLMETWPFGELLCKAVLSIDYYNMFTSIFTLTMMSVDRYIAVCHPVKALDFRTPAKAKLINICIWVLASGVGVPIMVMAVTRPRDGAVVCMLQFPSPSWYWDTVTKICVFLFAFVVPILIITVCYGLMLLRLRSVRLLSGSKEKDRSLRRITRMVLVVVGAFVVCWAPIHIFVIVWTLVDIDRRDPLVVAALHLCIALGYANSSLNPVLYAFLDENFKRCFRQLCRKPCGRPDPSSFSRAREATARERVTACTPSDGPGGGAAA
T3 sequence (P33533 whole entry): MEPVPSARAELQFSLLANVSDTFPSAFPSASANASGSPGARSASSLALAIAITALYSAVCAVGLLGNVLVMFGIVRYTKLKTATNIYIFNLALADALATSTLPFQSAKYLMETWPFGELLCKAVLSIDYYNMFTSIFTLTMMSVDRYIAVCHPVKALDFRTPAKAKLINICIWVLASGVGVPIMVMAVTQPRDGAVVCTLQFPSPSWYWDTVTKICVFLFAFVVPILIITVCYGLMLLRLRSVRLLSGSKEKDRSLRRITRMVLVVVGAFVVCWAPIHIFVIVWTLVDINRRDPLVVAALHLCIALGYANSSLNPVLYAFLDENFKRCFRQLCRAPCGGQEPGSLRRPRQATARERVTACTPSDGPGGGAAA
Chain of cloned human κ receptors (P41145 whole entry): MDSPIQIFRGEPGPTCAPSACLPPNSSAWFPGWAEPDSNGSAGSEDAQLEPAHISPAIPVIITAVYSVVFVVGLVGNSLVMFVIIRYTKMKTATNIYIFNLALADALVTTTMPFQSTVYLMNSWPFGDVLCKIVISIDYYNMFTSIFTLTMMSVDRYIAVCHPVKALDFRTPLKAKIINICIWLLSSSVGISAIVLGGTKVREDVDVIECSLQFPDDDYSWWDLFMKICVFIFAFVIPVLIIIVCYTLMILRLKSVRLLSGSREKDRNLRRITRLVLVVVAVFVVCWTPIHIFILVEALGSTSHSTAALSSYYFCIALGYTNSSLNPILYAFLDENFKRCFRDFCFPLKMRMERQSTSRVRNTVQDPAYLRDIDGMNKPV

For orientation: IC50 means the concentration that inhibits the measured activity by half. A low value points to inhibition by little substance. As usually defined, the EC50 is the concentration that produces a half-maximal response. A higher EC50 goes with a need for much substance. By Emax is commonly meant the maximal effect, on the per cent scale that the assay sets. Consider `CCN(CC)C(=O)c1ccc(C(=C2CCN(Cc3cccs3)CC2)c2cccc(NS(C)(=O)=O)c2)cc1` [Compound 1, N,N-diethyl-4-{{3-[(methylsulfonyl)amino]phenyl}[1-(thien-2-ylmethyl)piperidin-4-ylidene]methyl}benzamide], for which the results for the concentration for half-maximal inhibition (IC50) on cloned human δ receptors [1] and on cloned human μ receptors were 0.18 to 0.35 nM and 77.9 to 301 nM, respectively. In addition, on cloned human δ receptors [2], the EC50 was in the range of 5.25 to 19.3 nM. Further, the maximal effect (Emax) at cloned human δ receptors [2] (setting [4]) is 106 to 126%.

For `CCN(CC)C(=O)c1ccc(C(=C2CCN(Cc3ccco3)CC2)c2cccc(NS(C)(=O)=O)c2)cc1` [Compound 2, N,N-diethyl-4-[[l-(2-furanylmethyl)-4-piperidinylidene][3-[(methylsulfonyl)amino]phenyl]methyl]-benzamide], the values for the IC50 at cloned human δ receptors [1] and at cloned human μ receptors were 0.18 to 0.35 nM and 77.9 to 301 nM, respectively. The same compound had an EC50 on cloned human δ receptors [2] of 5.25 to 19.3 nM. The Emax on cloned human δ receptors [2] (setting [4]) lay in the range of 106 to 126%.

`CCN(CC)C(=O)c1ccc(C(=C2CCN(Cc3ccccc3)CC2)c2cccc(NS(C)(=O)=O)c2)cc1` [Compound 3, N,N-diethyl-4-[[1-(phenylmethyl)-4-piperidinylidene][3-[(methylsulfonyl)amino]phenyl]methyl]-benzamide]: the IC50 worked out at 0.56 nM at cloned human δ receptors [1], 35 nM on cloned human μ receptors and 1050 nM on cloned human κ receptors. For the same compound, the concentration giving a half-maximal response (EC50) on cloned human δ receptors [2] was 0.53 nM; in experiment [3] it was 1.32 nM. The Emax on cloned human δ receptors [2] (Table 1, higher expression, relative to standard δ agonist SNC80, read-out: Human δ % EMax (high)) is 99%; in experiment [3] (Table 1, rat brain membranes, relative to SNC80), 145%.

For the compound `CCN(CC)C(=O)c1ccc(C(=C2CCN(Cc3cccnc3)CC2)c2cccc(NS(C)(=O)=O)c2)cc1` [Compound 4, N,N-diethyl-4-[[3-[(methylsulfonyl)amino]phenyl][1-(3-pyridinylmethyl)4-piperidinylidene]methyl]-benzamide], the IC50 was in the range of 0.18 to 0.35 nM on cloned human δ receptors [1] and 77.9 to 301 nM on cloned human μ receptors. Further, the EC50 at cloned human δ receptors [2] fell in the range of 5.25 to 19.3 nM. Besides, the Emax at cloned human δ receptors [2] (setting [4]) lay within 106 to 126%.

As to `CCN(CC)C(=O)c1ccc(C(=C2CCN(Cc3nccs3)CC2)c2cccc(NS(C)(=O)=O)c2)cc1` [Compound 5], the IC50 on cloned human δ receptors [1] was 0.18 to 0.35 nM; on cloned human μ receptors, 77.9 to 301 nM. This compound had an EC50 on cloned human δ receptors [2] of 5.25 to 19.3 nM. For the same compound, the Emax on cloned human δ receptors [2] (setting [4]) was in the range of 106 to 126%.
